PMC5219937 (Bioconjugate chemistry, 2015)
Like-named read-outs stand apart in the source and are kept apart here.

Key:
[1] = system: type 2 diabetic C57BL/6 db/db mice; assay: Hypoglycemic effect after subcutaneous injection in db/db mice; assay type: in vivo, mouse
[2] = cited from earlier work

Substance: Albiglutide: a exendin-4-albumin fusion protein, FDA approved, once a week administration
- blood glucose level ([1]; dose 14 nmol/kg (Figure S8b)): 11.88 mmol/L
- time required to rebound to a glucose level of 8.35 mmol/L (hypoglycemic duration) ([1]; dose 69 nmol/kg): 11 h
- lowest glucose level ([1]; dose 69 nmol/kg, three mice, mean): 7.03 mmol/L
- lowest glucose level ([1]; dose 123 nmol/kg (Figure S8c)): 6.67 mmol/L
- time required to rebound to a glucose level of 8.35 mmol/L (hypoglycemic duration) ([1]; dose 123 nmol/kg (Figure S8d)): 28 h
- half-lifetime [2]: 96 to 170 h

Substance: Exenatide: commercial exendin-4
- circulating half-life [2]: 1.5 to 3.6 h

Substance: GLP-1: 30-amino-acid peptide hormone secreted from gut endocrine L cells
- half-lifetime ([2]; endogenous GLP-1, degraded by DPP-4 once secreted): 0.017 to 0.033 h
